Data as given in patent US11970542B2, “Bispecific antibodies specific for treating hematological malignancies” (FRED HUTCHINSON CANCER CENTER, priority 2017, dated 2024).

What was measured:
[1] = tested on: CD38 receptor expression in MM cell lines (U266, H929 and L363); test: ATRA effect on CD38 receptor expression in vitro; assay type: cell-based, human
Text: FIG. 12. […] These studies generated data to refine the process of manipulating CD38 receptor density for the purpose of increasing targeted delivery of radiolabeled DOTA-biotin after CD38 tumor cell pretargeting.

[2] = tested on: surface CD38 on three multiple myeloma cells lines; test: Antibody Binding Capacity assay (QuantiBrite), CD38 molecules; assay type: cell-based, human; details: 65-72 hours treatment
Method: FIG. 14. Antibody Binding Capacity assay (QuantiBrite, BD Biosciences) was used according to manufacturer instructions to measure the absolute number of CD38 molecules on the self-surface and accessible to antibody binding following 65-72 hours treatment of ATRA on three multiple myeloma cells lines.

[3] = tested on: surface BCMA on MM cell lines (RPMI8226, U266B1, MM1.R, H929) and primary MM samples; test: Effect of GSI on BCMA expression, flow cytometry; assay type: cell-based, human
Text: FIGS. 11A-11D. Dose dependent effect of the gamma secretase inhibitor, R04929097, on BCMA expression on 4 MM cell lines (11A, 11B) and 7 primary MM samples (11C, 11D). (11A) Surface BCMA expression by MM.1R cells cultured with the indicated concentrations of R04929097; staining with anti-BCMA antibody (black lines) compared to isotype control (grey line). (11B) Fold-change in surface BCMA expression by MM cell lines when cultured with the indicated concentrations of R04929097; fold change indicated relative to untreated MM cells of the same line. (11C) Surface BCMA expression by primary patient MM cells cultured with the indicated concentrations of R04929097. Staining was as described in regard to FIG. 11A. (11D) Fold change in BCMA on primary myeloma cells (n=7) cultured with vary amounts of GSI for […]. Primary and cell lines were cultured at 0.5×10^6 cells/mL. Fold change in BCMA is defined as Treated (MFIBCMA-MFIiso)/Control (MFIBCMA-MFIiso). Data is representative of 3 independent experiments with T cells derived from different donors.
The effect of GSI on BCMA expression was evaluated by incubating four MM cell lines (RPMI8226, U266B1, MM1.R, and H929) and primary MM samples in media containing 0 (DMSO), 0.01, 0.1, and 1.0 μM of GSI and measuring surface BCMA at 5 hr. […] These concentrations are 3-30 fold below the serum levels that are achieved by well tolerated oral dosing regimens of GSI in phase 1 trials in cancer patients.

[4] = tested on: surface BCMA on three multiple myeloma cells lines; test: Antibody Binding Capacity assay (QuantiBrite), BCMA molecules; assay type: cell-based, human; details: 5 μM, 17 hours incubation
Method: FIG. 13. Antibody Binding Capacity assay (QuantiBrite, Cat. No. 340495, BD Biosciences) was used according to manufacturer instructions to measure the absolute number of BCMA molecules on the self-surface and accessible to antibody binding following 17 hours incubation in the presence or absence of 5 μM gamma secretase inhibitor (R04929097) on three multiple myeloma cells lines.

[5] = Blood clearance time course of BCMA bispecific with or without GSI; design: species or system mice; details: mouse, in vivo
Text: FIG. 15. To ensure our clearing agent was able to effectively clear unbound agent from the blood stream, we conducted a time course experiment to test the impact of the clearing agent on the BCMA bispecific in the presence or absence of GSI. The percent of the injected dose (% ID) was monitored in the blood during a time course experiment by measuring the relative amount of Yttrium^90 in blood samples obtained from mice.

Row | SMILES | CD38 receptor expression ([1]; U266 MM line, solubilized ATRA) | CD38 receptor expression ([1]; three MM cell lines (U266, H929 and L363)) | number of CD38 molecules on the cell surface [2] | effect on cell viability ([3]; 0.01, 0.1, and 1.0 μM, 5 hr) | concentration of maximal increase in MFI of BCMA staining ([3]; 0.01-1.0 μM tested, 5 hr) [µM] | soluble BCMA levels ([3]; 0.1 and 1.0 μM) | change in MFI of BCMA staining ([3]; all 4 cell lines and primary MM cells, 5 hr) | time to upregulation of BCMA after GSI exposure ([3]; time course) [h] | number of BCMA molecules on the cell surface [4] | blood clearance of BCMA bispecific fusion in combination with GSI [5]
1 | CC1=C(/C=C/C(C)=C/C=C/C(C)=C/C(=O)O)C(C)(C)CCC1 [ATRA, all-trans retinoic acid] | striking dose dependent increase in expression | dose dependent increase | upregulates surface CD38 target expression | – | – | – | – | – | – | –
2 | CC(C)(C(=O)NCC(F)(F)C(F)(F)F)C(=O)N[C@@H]1C(=O)Nc2ccccc2-c2ccccc21 [R04929097] | – | – | – | did not affect cell viability | 1.0 | decline in soluble BCMA levels | marked increase | ≤ 1 | upregulates surface BCMA target expression | further facilitated blood clearance
